Positions of bridges follow the written chain, without caps; N, C: chain ends. Non-standard residues stand in square brackets, D forms with d. Residues, ends and D or L forms follow the SMILES beside them. Hyp = O=C(O)[C@@H]1C[C@@H](O)CN1
Experiments:
side effects in rats = conditions: rat, in vivo
endogenous human Cav1.3 = endogenous human Cav1.3 (Homo sapiens, UniProt Q01668)
endogenous human Cav3.1 = endogenous human Cav3.1 (Homo sapiens, UniProt O43497)
[1] = target: N-type calcium channel currents (Cav2.2) in rDRG neurons (Rattus norvegicus, UniProt Q02294); test: cell-based; conditions: SEM
Chain of N-type calcium channel currents (Cav2.2) in rDRG neurons (Q02294 whole entry, looked up): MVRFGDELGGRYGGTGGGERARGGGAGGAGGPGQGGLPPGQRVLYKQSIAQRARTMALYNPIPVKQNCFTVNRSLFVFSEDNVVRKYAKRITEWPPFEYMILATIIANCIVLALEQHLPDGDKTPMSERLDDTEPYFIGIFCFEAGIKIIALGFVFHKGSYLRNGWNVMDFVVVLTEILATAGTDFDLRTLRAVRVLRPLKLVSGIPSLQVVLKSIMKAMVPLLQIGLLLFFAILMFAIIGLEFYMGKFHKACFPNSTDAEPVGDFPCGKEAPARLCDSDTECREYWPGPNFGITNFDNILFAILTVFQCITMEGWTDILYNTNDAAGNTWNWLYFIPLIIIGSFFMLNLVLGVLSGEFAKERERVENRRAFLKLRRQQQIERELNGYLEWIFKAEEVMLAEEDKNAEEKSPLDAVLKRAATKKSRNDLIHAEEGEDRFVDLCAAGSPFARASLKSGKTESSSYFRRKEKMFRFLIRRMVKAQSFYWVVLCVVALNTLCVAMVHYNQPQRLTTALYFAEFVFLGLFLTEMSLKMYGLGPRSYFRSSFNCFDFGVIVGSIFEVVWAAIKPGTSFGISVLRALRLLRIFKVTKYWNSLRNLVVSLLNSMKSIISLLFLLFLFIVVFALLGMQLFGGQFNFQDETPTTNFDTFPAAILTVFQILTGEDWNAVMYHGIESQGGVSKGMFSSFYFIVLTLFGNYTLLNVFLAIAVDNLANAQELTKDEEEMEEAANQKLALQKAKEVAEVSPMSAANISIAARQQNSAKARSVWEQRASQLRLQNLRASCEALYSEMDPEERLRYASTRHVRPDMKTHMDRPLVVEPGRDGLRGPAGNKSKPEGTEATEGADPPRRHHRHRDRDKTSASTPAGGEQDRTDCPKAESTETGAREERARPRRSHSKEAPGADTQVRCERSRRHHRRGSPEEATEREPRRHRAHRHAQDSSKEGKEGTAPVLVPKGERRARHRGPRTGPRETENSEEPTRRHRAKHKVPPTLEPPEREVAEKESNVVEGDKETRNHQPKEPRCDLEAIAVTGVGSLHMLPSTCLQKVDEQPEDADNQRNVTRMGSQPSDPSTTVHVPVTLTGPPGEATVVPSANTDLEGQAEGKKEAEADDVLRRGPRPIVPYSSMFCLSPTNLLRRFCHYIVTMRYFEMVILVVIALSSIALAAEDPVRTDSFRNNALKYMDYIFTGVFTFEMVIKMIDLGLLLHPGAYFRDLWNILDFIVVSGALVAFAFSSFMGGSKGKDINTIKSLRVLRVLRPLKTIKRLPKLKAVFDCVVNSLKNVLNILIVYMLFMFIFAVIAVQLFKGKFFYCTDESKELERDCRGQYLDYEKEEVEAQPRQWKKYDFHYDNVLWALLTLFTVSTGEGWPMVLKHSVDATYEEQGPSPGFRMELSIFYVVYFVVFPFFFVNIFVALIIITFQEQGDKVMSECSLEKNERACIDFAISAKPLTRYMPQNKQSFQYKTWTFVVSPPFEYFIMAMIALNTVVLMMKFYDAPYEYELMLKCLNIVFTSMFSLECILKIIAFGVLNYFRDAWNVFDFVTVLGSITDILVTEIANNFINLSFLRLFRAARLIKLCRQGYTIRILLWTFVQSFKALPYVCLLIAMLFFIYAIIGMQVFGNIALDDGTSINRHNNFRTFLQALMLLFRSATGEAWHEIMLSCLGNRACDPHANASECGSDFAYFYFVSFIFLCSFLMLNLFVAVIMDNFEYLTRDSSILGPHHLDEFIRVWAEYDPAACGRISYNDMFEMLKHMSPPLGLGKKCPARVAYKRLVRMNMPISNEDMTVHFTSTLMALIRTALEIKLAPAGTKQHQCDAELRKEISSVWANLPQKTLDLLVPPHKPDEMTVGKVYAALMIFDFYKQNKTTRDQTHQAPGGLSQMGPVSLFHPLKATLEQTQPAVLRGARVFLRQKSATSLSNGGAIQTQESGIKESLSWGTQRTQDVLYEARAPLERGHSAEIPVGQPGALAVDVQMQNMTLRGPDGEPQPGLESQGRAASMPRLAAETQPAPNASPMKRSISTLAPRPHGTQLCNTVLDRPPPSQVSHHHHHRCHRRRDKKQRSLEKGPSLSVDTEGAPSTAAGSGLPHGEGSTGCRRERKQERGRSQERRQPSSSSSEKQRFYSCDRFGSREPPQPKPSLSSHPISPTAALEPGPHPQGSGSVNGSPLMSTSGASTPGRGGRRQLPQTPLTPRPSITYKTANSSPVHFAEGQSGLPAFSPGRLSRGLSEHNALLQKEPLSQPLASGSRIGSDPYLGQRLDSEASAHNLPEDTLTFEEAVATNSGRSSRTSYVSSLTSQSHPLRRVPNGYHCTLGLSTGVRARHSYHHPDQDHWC

Chain of endogenous human Cav3.1 (O43497 whole entry): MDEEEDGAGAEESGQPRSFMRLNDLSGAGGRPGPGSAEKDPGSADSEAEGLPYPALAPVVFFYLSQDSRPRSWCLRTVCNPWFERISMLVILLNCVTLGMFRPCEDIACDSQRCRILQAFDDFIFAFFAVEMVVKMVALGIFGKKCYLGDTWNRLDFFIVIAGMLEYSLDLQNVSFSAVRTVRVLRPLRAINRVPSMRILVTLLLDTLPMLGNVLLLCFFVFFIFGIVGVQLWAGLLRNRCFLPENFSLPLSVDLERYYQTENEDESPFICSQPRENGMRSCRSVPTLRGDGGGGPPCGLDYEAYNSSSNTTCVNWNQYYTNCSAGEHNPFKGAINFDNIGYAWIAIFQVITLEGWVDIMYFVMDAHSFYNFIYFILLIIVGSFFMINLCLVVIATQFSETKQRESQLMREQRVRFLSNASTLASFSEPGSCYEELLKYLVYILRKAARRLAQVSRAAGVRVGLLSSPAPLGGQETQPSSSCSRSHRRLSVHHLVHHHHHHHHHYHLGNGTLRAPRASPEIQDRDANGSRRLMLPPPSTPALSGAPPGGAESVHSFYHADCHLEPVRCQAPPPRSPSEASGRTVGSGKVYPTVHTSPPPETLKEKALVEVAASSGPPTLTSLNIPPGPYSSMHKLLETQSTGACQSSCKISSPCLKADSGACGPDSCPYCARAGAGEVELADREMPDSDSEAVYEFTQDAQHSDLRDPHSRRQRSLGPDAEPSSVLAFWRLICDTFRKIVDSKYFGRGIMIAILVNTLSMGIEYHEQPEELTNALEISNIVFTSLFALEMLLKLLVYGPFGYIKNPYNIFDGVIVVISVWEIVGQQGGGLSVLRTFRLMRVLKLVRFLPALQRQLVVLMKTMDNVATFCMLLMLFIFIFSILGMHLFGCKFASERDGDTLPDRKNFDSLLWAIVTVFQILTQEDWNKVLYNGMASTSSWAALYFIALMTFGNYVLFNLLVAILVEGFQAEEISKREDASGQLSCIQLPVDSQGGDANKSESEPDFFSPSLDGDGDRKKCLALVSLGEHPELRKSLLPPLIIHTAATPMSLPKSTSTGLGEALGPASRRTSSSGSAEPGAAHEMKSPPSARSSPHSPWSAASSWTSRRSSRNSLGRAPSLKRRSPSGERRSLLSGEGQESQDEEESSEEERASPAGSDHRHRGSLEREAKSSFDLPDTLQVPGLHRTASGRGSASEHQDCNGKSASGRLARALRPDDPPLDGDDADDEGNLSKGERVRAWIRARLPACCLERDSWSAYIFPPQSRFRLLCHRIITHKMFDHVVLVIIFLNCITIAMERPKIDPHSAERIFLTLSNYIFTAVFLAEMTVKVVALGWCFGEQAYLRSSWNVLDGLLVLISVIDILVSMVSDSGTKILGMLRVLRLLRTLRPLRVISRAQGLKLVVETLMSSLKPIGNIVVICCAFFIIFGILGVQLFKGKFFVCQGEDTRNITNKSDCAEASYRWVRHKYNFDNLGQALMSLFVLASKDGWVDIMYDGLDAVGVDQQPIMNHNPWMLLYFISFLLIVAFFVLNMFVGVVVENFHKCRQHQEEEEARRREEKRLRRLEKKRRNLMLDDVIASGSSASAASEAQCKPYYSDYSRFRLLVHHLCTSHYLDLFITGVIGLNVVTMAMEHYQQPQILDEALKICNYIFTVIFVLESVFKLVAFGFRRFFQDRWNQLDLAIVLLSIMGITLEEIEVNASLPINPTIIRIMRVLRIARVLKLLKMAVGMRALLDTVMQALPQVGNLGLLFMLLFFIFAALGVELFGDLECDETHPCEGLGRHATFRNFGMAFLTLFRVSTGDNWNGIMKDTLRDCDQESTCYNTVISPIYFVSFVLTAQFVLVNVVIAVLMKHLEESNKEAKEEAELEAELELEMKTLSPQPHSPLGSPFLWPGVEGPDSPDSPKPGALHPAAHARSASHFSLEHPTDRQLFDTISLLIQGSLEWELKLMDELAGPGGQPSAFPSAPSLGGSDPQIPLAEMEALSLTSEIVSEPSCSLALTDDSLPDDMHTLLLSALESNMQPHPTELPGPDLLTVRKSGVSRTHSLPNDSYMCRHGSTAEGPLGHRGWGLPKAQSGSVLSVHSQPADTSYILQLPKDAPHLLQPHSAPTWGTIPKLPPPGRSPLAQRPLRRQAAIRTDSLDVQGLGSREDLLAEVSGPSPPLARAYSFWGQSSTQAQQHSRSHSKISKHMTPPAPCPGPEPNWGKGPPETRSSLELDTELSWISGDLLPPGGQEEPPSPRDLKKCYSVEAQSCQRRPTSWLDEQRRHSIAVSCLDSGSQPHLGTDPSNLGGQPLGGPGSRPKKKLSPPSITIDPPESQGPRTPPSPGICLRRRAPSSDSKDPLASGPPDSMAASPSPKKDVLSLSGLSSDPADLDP

Compound | duration of side effects (side effects in rats) | therapeutic index (ratio of ED50 visual side effect score to ED50 mechanical PWT) (side effects in rats) | ED50 for visual side effect score (side effects in rats; SEM) | activity at endogenous human Cav1.3 (endogenous human Cav1.3) | activity at endogenous human Cav3.1 (endogenous human Cav3.1) | IC50 [1]
CC[C@H](C)[C@@H]1NC(=O)[C@@H]2CSSC[C@@H]3NC(=O)[C@H](CCCCN)NC(=O)[C@H](CO)NC(=O)CNC(=O)[C@@H]4C[C@@H](O)CN4C(=O)[C@@H]4CCCN4C(=O)[C@H](CCCCN)NC(=O)[C@@H](N)CSSC[C@H](NC(=O)[C@H](CSSC[C@@H](C(=O)N[C@@H](CCCNC(=N)N)C(=O)N[C@@H](CCCCN)C(=O)N[C@@H](Cc4ccc(O)cc4)C(=O)N[C@@H](Cc4ccc(O)cc4)C(=O)O)NC(=O)[C@H](CCCNC(=N)N)NC(=O)[C@H](CCCCN)NC(=O)[C@H]([C@@H](C)O)NC(=O)[C@H](Cc4ccc(O)cc4)NC(=O)[C@H](CO)NC1=O)NC(=O)[C@H](CC(=O)O)NC(=O)[C@H](CCCNC(=N)N)NC(=O)[C@H](CCSC)NC(=O)[C@H](CO)NC(=O)[C@@H]1C[C@@H](O)CN1C(=O)[C@H](CO)NC3=O)C(=O)N[C@@H]([C@@H](C)O)C(=O)N[C@@H]([C@@H](C)O)C(=O)N2 [MoVIB] (H-CKP[Hyp]GSKCS[Hyp]SMRDCCTTCISYTKRCRKYY-OH; disulfide 1-16, 8-19, 15-26) | up to 4 h | 2.2 | 0.09 ± 0.05 nmol | inactive | inactive | 180 ± 30 nM
CC[C@H](C)[C@@H]1NC(=O)[C@@H]2CSSC[C@@H]3NC(=O)[C@H](CCCCN)NC(=O)[C@H](CO)NC(=O)CNC(=O)[C@@H]4C[C@@H](O)CN4C(=O)[C@@H]4CCCN4C(=O)[C@H](CCCCN)NC(=O)[C@@H](N)CSSC[C@H](NC(=O)[C@H](CSSC[C@@H](C(=O)N[C@@H](CCCNC(=N)N)C(=O)N[C@@H](CCCCN)C(=O)N[C@@H](Cc4ccc(O)cc4)C(=O)N[C@@H](Cc4ccc(O)cc4)C(=O)N[C@@H](CC(N)=O)C(=O)O)NC(=O)[C@H](CCCNC(=N)N)NC(=O)[C@H](CCCCN)NC(=O)[C@H]([C@@H](C)O)NC(=O)[C@H](Cc4ccc(O)cc4)NC(=O)[C@H](CO)NC1=O)NC(=O)[C@H](CC(=O)O)NC(=O)[C@H](CCCNC(=N)N)NC(=O)[C@H](CCSC)NC(=O)[C@H](CO)NC(=O)[C@@H]1C[C@@H](O)CN1C(=O)[C@H](CO)NC3=O)C(=O)N[C@@H]([C@@H](C)O)C(=O)N[C@@H]([C@@H](C)O)C(=O)N2 [MoVIA] (H-CKP[Hyp]GSKCS[Hyp]SMRDCCTTCISYTKRCRKYYN-OH; disulfide 1-16, 8-19, 15-26) | – | – | – | inactive | inactive | 80 ± 10 nM
